Measurements taken from paper PMC7144376, “Antiviral Effects of Novel 2-Benzoxyl-Phenylpyridine Derivatives” (Molecules, 2020).

Assays:
Assay type in all cases: cell-based, Coxsackievirus B3
CVB3 protein = CVB3 protein by indirect immunofluorescence; settings: 160 μM, Hep-2 cells
Method: (§1) Figure 5 Effect of W13 on CVB3 replication in Hep-2 cells. Hep-2 cells infected with 100 TCID50 CVB3 were incubated in the absence or presence of 160 µM W13 and harvested at the indicated times post-infection. (a) Progeny virus yields were determined. (b) Viral RNA levels were measured by analysis of total RNA. GAPDH was amplified and the resulting data was used for normalization. Values represent the means ± SDs of three independent experiments. * p < 0.05; ** p < 0.01, compared with the virus control group. (c) CVB3 protein levels were determined by indirect immunofluorescence, using the mouse anti-coxsackie virus B3 monoclonal antibody, MAB948, and an alexa-fluor-488-conjugated affiniPure goat anti-mouse IgG (H + L), after incubation with W13 for 24 h. Nuclei were stained with DAPI and green foci indicate the presence of CVB3 protein.
The influence of W13 on CVB3 replication was also determined at the translational level. […] Then, intracellular viral protein was detected by indirect immunofluorescence analysis after incubation for 8, 24, and 36 h.
Hep-2 cells (1 × 10^5) were seeded in 24-well plates and incubated overnight. […] After the plates had been washed three times with 0.1% Tween-20 in PBS, they were incubated with the appropriate Alexa-Fluor-488-labeled secondary antibody (Invitrogen) and fluorescence evaluated using an OLYMPUS IX73 microscope (Tokyo, Japan).

CVB3 = experiment: Time course of CVB3 progeny yield in Hep-2 cells; settings: 160 μM, 32 h pi
Method: To further investigate the effects of these compounds on CVB3 replication, we analyzed the efficacy of representative compound, W13, in inhibiting viral progeny yield, RNA synthesis, and protein translation. Infected cells treated with or without 160 μM W-13 were harvested after 4 h, 8 h, 16 h and 32 h, viral progeny yields were determined using the Reed–Muench method, and quantitative reverse transcription polymerase chain reaction analysis of harvested cells were conducted, to evaluate the relative amounts of viral RNA. […] Figure 5b illustrates the efficacy of W-13 in inhibiting viral RNA synthesis. […]
Figure 5 Effect of W13 on CVB3 replication in Hep-2 cells. […] (a) Progeny virus yields were determined. (b) Viral RNA levels were measured by analysis of total RNA. […] (c) CVB3 protein levels were determined by indirect immunofluorescence, using the mouse anti-coxsackie virus B3 monoclonal antibody, MAB948, and an alexa-fluor-488-conjugated affiniPure goat anti-mouse IgG (H + L), after incubation with W13 for 24 h. […]
CVB3 or ADV7 suspensions, serially diluted 10-fold with DMEM containing 2% FBS (DMEM maintenance medium, MM), were inoculated to Hep-2 or HeLa cells in 96-well plates. […] After 2 days, infected cells were monitored for CPEs and virus titers were calculated using the Reed–Muench method.

CVB3 RNA = CVB3 RNA by quantitative reverse transcription-PCR; settings: 160 μM, Hep-2 cells, 32 h pi, normalized to GAPDH
Method: To further investigate the effects of these compounds on CVB3 replication, we analyzed the efficacy of representative compound, W13, in inhibiting viral progeny yield, RNA synthesis, and protein translation. Infected cells treated with or without 160 μM W-13 were harvested after 4 h, 8 h, 16 h and 32 h, viral progeny yields were determined using the Reed–Muench method, and quantitative reverse transcription polymerase chain reaction analysis of harvested cells were conducted, to evaluate the relative amounts of viral RNA. […] Figure 5b illustrates the efficacy of W-13 in inhibiting viral RNA synthesis. Viral RNA became detectable in the virus control group during the first 4 h pi, followed by significant increases at subsequent time points.
as §1, with “Values represent the means ± SDs of three independent experiments. * p < 0.05; ** p < 0.01, compared with the virus control group.” left out, “Nuclei were stained with DAPI and green foci indicate the presence of CVB3 protein.” left out

Cc1ccc(OC(=O)C(C)(C)C)c(-c2ccccn2)c1 [W13]
viral protein synthesis (immunofluorescence foci) (CVB3 protein): suppressed
reduction in viral replication (progeny virus titer) (CVB3): ~3.0 log
reduction of viral RNA copy numbers (CVB3 RNA): approximately 500 fold
